{
  "source": "patent US11253592B2",
  "about": "“Water-soluble compounds with aggregation-induced emission characteristics” (THE HONG KONG UNIVERSITY OF SCIENCE AND TECHNOLOGY, priority 2017, dated 2022)",
  "key": {"HeLa cells [1]": {"system": "HeLa cells", "assay": "Photostability under continuous laser irradiation in stained cells", "assay_type": "cell-based", "details": "15 min continuous laser irradiation, λex 488 nm", "protocol": "For photostability studies, TTVP-labelled HeLa cells were imaged by a confocal microscope (Zeiss laser scanning confocal microscope LSM7 DUO) using ZEN 2009 software (Carl Zeiss). Conditions: for TTVP, excitation wavelength: 488 nm; for DiO, excitation wavelength: 488 nm (5% laser power).\nThe specificity of TTVP to plasma membrane was evaluated by co-staining with DiO, which is a commercially available bioprobe for plasma membrane. In this co-localization experiment, after incubating HeLa cells with DiO for 10 min, TTVP was added into the culture followed by culture shaking for a few seconds at room temperature. In order to accommodate the staining protocol of DiO, postwashing after cell staining was carried out. As shown in FIGS. 9A-9H, TTVP can selectively accumulate in the plasma membrane and emit strong red fluorescence. The well-merged images of TTVP and DiO indicate the high specificity of the compounds to the plasma membrane, and the Pearson's correlation coefficient is determined to be 89%. To assess the photostability of TTVP and DiO, continuous excitation and sequential scanning with confocal microscope were utilized."}, "HeLa cells [2]": {"system": "HeLa cells", "assay": "MTT cytotoxicity in dark conditions (biocompatibility)", "assay_type": "cell-based", "protocol": "For cytotoxicity studies relating to biocompatibility of the present compounds to Hela cells, MTT assays were used to evaluate the cytotoxicity of the presented AIEgens. Cells were seeded in 96-well plates (Costar, IL, USA) at a density of 6000-8000 cells/well. After overnight culturing, medium in each well were replaced by 100 μL fresh medium containing different concentrations of TTVP. 24 hours later, 10 μL MTT solution (5 mg/mL in PBS) was added into each well. After 4 hours of incubation, 100 μL SDS-HCl aqueous solution (10% SDS and 0.01 M HCl) was added to each well. After incubation for 4 hours, the absorption of each well at 595 nm was recorded via a plate reader (Perkin-Elmer Victor3™). Each trial was performed with 6 wells parallel.\n(§1) Effective ROS generation of the present compounds in PDT applications was quantitatively evaluated on HeLa cells by a standard MTT assay. A dose-dependent toxicity was determined in both the absence and presence of white light irradiation. […] In comparison, HeLa cells retained 90% viability when they were incubated with 1 μM of TTVP in dark conditions. Furthermore, flow cytometric analysis using Annexin V-FITC/propidium iodide (PI) double staining was utilized to determine cell apoptosis (FIGS. 11C and 11D). […]"}, "HeLa cells [3]": {"system": "HeLa cells", "assay": "MTT cytotoxicity under white light irradiation (PDT)", "assay_type": "cell-based", "details": "white light irradiation (around 10 mW) 10 min", "protocol": "For cytotoxicity studies relating to cytotoxicity of the present compounds to cancer cells under light irradiation, HeLa cells were seeded in 96-well plates (Costar, IL, USA) at a density of 6000-8000 cells/well. After overnight culturing, medium in each well were replaced by 100 μL fresh medium containing different concentrations of TTVP. After incubation for 3 s, plates containing HeLa cells were exposed to white light (around 10 mW) for 10 min, and another array of plates with cells were kept in dark as control. Then the plates were subjected to the same treatment as the biocompatibility test.\nas §1"}, "[4]": {"system": "plasma membrane of living HeLa cells", "assay": "Plasma membrane cell imaging by confocal microscopy", "assay_type": "cell-based", "protocol": "(§2) For cell imaging, cells were grown in a 35 mm Petri dish with a coverslip at 37° C. The live cells were incubated with a certain dye at a certain concentration for a certain time. After adding TTVP (500 nM), the Petri dish was shaken for a few seconds at room temperature, then the coverslip was removed. The TTVP-labelled cells were mounted and imaged using a laser scanning confocal microscope (LSM7 DUO) at 512 nm with 5% laser power (the scanning rate was 22.4 s per frame). The emission filter was 600-744 nm.\nAs a water-soluble NIR-emissive AIEgen, TTVP maintains an “off” state in an aqueous environment. As such, TTVP can serve as a “light-up” probe for bioimaging with minimal background interference from both free dyes and bio-substrate autofluorescence. In preliminary bioimaging experiments, cell imaging studies were conducted using HeLa cells as a cell model, and incubating 500 nM of TTVP for 10 min. […] The influence of incubation period was then investigated by utilizing a wash-free procedure with different staining times. […] The plasma membrane-staining ability of TTVP can be mainly attributed to its good hydrophilicity, which impedes the permeation of TTVP passing through the hydrophobic region of phospholipid bilayers. It is believed that the emitting moiety of TTVP is embedded within the hydrophobic region with low polarity, evidently giving fluorescent emission upon irradiation according to the restriction of intramolecular motions (RIM) mechanism of the AIE process (FIG. 6G). […] Additionally, ultrafast staining could result from the excellent monodispersity of TTVP in culture media of cells."}, "HeLa cells [5]": {"system": "HeLa cells", "assay": "Flow cytometry Annexin V-FITC/PI double staining for apoptosis and necrosis", "assay_type": "cell-based", "details": "500 nM", "protocol": "Effective ROS generation of the present compounds in PDT applications was quantitatively evaluated on HeLa cells by a standard MTT assay. A dose-dependent toxicity was determined in both the absence and presence of white light irradiation. […] In comparison, HeLa cells retained 90% viability when they were incubated with 1 μM of TTVP in dark conditions. Furthermore, flow cytometric analysis using Annexin V-FITC/propidium iodide (PI) double staining was utilized to determine cell apoptosis (FIGS. 11C and 11D). […] It is worth noting that continuous light irradiation with strong power (around 18.5 times higher than that for cell imaging depicted in FIGS. 6A-6H and FIGS. 8A-8H) led to some changes of cells, for instance, TTVP can gradually enter the cells (FIGS. 11E-11I); the cell membrane morphology changed, and the formation of blebs on the plasma membrane was clearly observed, which is a sign of cell death. Those changes can be attributed to the fact that the ROS generated from TTVP considerably disrupts the rigidity and permeability of plasma membrane, and induces cancer cell death. FIGS. 12A, 12B, 12C, 12D, and 12E depict bright-field confocal images of HeLa cell stained with TTVP upon the increase of irradiation time. λex: 488 nm (20% laser power, 0.925 μW)."}, "[6]": {"assay": "Photophysical (optical) properties of TTVP", "assay_type": "physicochemical", "protocol": "H spectra were measured on Bruker ARX 400 NMR spectrometers using CD3OD as the deuterated solvent. High-resolution mass spectra (HRMS) were recorded on a Finnegan MAT TSQ 7000 Mass Spectrometer System operating in a MALDI-TOF mode. UV absorption spectra were taken on a Milton Ray Spectronic 3000 array spectrophotometer. Steady-state fluorescence spectra were recorded on a Perkin Elmer LS 55 spectrometer. Fluorescence images were collected on Olympus BX 41 fluorescence microscope. Laser confocal scanning microscope images were collected on Zeiss laser scanning confocal microscope (LSM7 DUO) and analyzed using ZEN 2009 software (Carl Zeiss).\n(§3) TTVP benefits from its positively charged amine and pyridinium salt having hydrophilic characteristic, as well as the small size of the hydrophobic moiety. […] The relatively long absorption wavelength can be attributed to its small HOMO-LOMO energy gap, which is caused by the strong electron donating-accepting interaction of the emitting center (FIGS. 3A-3C).\n(§4) Dynamic light scattering analysis (DLS) and transmission electron microscope (TEM) measurements were performed to confirm the formation of aggregates upon the addition of THF into the TTVP aqueous solution. […] In the solid state, TTVP emitted at 705 nm with 2.7% of quantum yield and 0.92 ns of lifetime (FIGS. 4-5, Table 1)."}, "[7]": {"assay": "DLS analysis of nanoaggregates in water/THF", "assay_type": "physicochemical", "details": "suspension with 90% fraction of THF", "protocol": "as §4"}, "MDCK2 cells": {"system": "MDCK2 cells", "assay": "Ultrafast wash-free plasma membrane imaging", "assay_type": "cell-based", "details": "500 nM, around 3 s", "protocol": "as §2\n(§5) Encouraged by the distinct advantages of TTVP for membrane-specific imaging, this ultrafast staining and wash-free cellular imaging protocol was further employed for staining other cell lines, including 293T, HCC827, HCT116, and MDCK2."}, "HCT116 cells": {"system": "HCT116 cells", "assay": "Ultrafast wash-free plasma membrane imaging", "assay_type": "cell-based", "details": "500 nM, around 3 s", "protocol": "as §2, §5"}, "HCC827 cells": {"system": "HCC827 cells", "assay": "Ultrafast wash-free plasma membrane imaging", "assay_type": "cell-based", "details": "500 nM, around 3 s", "protocol": "as §2, §5"}, "293T cells": {"system": "293T cells", "assay": "Ultrafast wash-free plasma membrane imaging", "assay_type": "cell-based", "details": "500 nM, around 3 s", "protocol": "as §2, §5"}, "Water solubility": {"assay": "Water solubility", "assay_type": "physicochemical", "from_the_text": "as §3"}, "[8]": {"assay": "ROS generation with H2DCF-DA indicator under white light", "details": "10 μM TTVP, 5 μM H2DCF-DA in PBS, white light 10 mW, within 60 s", "from_the_text": "The strong absorption of TTVP in the visible light region permits utilization of visible light as the excitation light source for PDT processes. Visible light causes less damage to biological systems than UV light. The ROS generation efficiency of TTVP was initially determined by the use of H2DCF-DA as an indicator, which emits fluorescence with a “turn on” process triggered by ROS. As depicted in FIG. 11A, TTVP or H2DCF-DA alone was non-emissive or weekly emissive, and each fluorescence intensity remained almost constant within 60 s white light irradiation. […] The efficient ROS generation of TTVP could be attributed to both its small singlet-triplet energy gap (0.47 eV) and excellent monodispersity. The former favors the improvement of the yield of the triplet excited state, and the latter can enlarge contact area between TTVP and oxygen."}},
  "data": [
    {"smiles": "CCCCCCCCCCCCCCCCCCN1/C(=C\\C=C\\c2oc3ccccc3[n+]2CCCCCCCCCCCCCCCCCC)Oc2ccccc21.[O-][Cl+3]([O-])([O-])[O-]", "note": "[DiO, reference compound]", "values": [
      {"measurement": "change of emission intensity on irradiation (photostability)", "setting": "HeLa cells [1]", "value": "fluorescence loss of DiO was very obvious"}
    ]},
    {"smiles": "C[N+](C)(C)CCC[n+]1ccc(/C=C/c2ccc(-c3ccc(N(c4ccccc4)c4ccccc4)cc3)s2)cc1", "note": "[TTVP]", "values": [
      {"measurement": "change of emission intensity on irradiation (photostability)", "setting": "HeLa cells [1]", "value": "slightly decreased"},
      {"measurement": "cytotoxicity in dark conditions", "setting": "HeLa cells [2]", "value": "low cytotoxicity"},
      {"measurement": "cell viability", "setting": "HeLa cells [2]; 1 μM", "value": 90, "unit": "%"},
      {"measurement": "cell death", "setting": "HeLa cells [3]; 1 μM", "value": "almost complete cell death"},
      {"measurement": "viability at 0.5 µM", "setting": "HeLa cells [3]; Homo sapiens, HeLa, light or radiation study, 10 min, 500 nM, read-out: cell viability", "value": 15, "unit": "%"},
      {"measurement": "plasma membrane visualization", "setting": "[4]; 500 nM, 10 min incubation, with or without washing", "value": "clearly visualized with excellent image contrast"},
      {"measurement": "plasma membrane staining", "setting": "[4]; 500 nM, shaking a few seconds at room temperature, wash-free", "value": "lit up significantly"},
      {"measurement": "cellular localization after long staining", "setting": "[4]; 500 nM, staining for 6 hours", "value": "A majority of TTVP entered the cells"},
      {"measurement": "plasma membrane visualization", "setting": "[4]; 500 nM, staining time 4 h", "value": "still be clearly visualized"},
      {"measurement": "maximum emission of stained living cells", "setting": "[4]; living HeLa cells stained with TTVP", "value": 623, "unit": "nm"},
      {"measurement": "cell necrosis on light irradiation", "setting": "HeLa cells [5]", "value": "caused cancer cell necrosis in a short period of time"},
      {"measurement": "λem (nm) Aggr, maximum emission in aggregated state", "setting": "[6]; aggregated state, water/THF mixture", "value": 708, "unit": "nm"},
      {"measurement": "ε, molar extinction coefficient", "setting": "[6]; aqueous solution, at 515 nm", "value": 33517, "unit": "M⁻¹ cm⁻¹"},
      {"measurement": "λabs (nm), absorption maximum", "setting": "[6]; aqueous solutions", "value": 515, "unit": "nm"},
      {"measurement": "λem (nm) Solid, emission maximum in solid state", "setting": "[6]; solid state", "value": 705, "unit": "nm"},
      {"measurement": "τ, fluorescence lifetime", "setting": "[6]; solid state, ambient conditions", "value": 0.92, "unit": "ns"},
      {"measurement": "ΦF, fluorescence quantum yield", "setting": "[6]; solid state, calibrated integrating sphere", "value": 2.7, "unit": "%"},
      {"measurement": "average hydrodynamic diameter of nanoaggregates", "setting": "[7]", "value": "around 43 nm"},
      {"measurement": "polydispersity index", "setting": "[7]", "value": 0.13},
      {"measurement": "plasma membrane visualization", "setting": "MDCK2 cells", "value": "clearly visualized"},
      {"measurement": "plasma membrane visualization", "setting": "HCT116 cells", "value": "clearly visualized"},
      {"measurement": "plasma membrane visualization", "setting": "HCC827 cells", "value": "clearly visualized"},
      {"measurement": "plasma membrane visualization", "setting": "293T cells", "value": "clearly visualized"},
      {"measurement": "water solubility", "setting": "Water solubility", "value": "good water solubility"},
      {"measurement": "enhancement of H2DCF-DA emission intensity (ROS generation)", "setting": "[8]", "value": 87, "unit": "fold"}
    ]}
  ]
}
